Broadly, the viability, T/C is the ratio of treated to control.

The values that follow come from PubChem BioAssay AID2060494 (Molecular Pharmacology Branch, DTP, NCI, 2025).
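Further: spheroids exposed to the agents for seven days before readout; percent of vehicle control viability with DMSO wells as 100%.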

One test concerns 435261-313-R-J1-PDC complex spheroid viability. The test can be described thus: Anticancer human tumor 435261-313-R-J1-PDC patient-derived colon adenocarcinoma cell line growth inhibition [GQUAD]. The settings on record: second compound 10 µM; first compound 0.0316 µM; active compounds read low. In outline: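 Multi-cell-type spheroids of tumor cells with HUVEC and mesenchymal stem cells, treated with drug combinations. Concentrations descend in half-log steps from near clinical Cmax, or from 10 microM where Cmax is unknown; viability read-out.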
As for `COc1ccc([C@@H](O)c2cc(-c3ncnc4cc(N5CCOCC5)ccc34)c(F)cc2Cl)nn1` + CN(C)c1ccc(Nc2c3ccc(NC(=O)CCN4CCCC4)cc3nc3cc(NC(=O)CCN4CCCC4)ccc23)cc1, the viability, T/C was 56.1%.

`O=C(c1cc(Cc2n[nH]c(=O)c3ccccc23)ccc1F)N1CCN(C(=O)C2CC2)CC1` + CN(C)c1ccc(Nc2c3ccc(NC(=O)CCN4CCCC4)cc3nc3cc(NC(=O)CCN4CCCC4)ccc23)cc1: the viability, T/C is 37.3%.

The test is the same for the next values; noted with them: second compound 10 µM; first compound 0.1 µM; active compounds read low.
Take `CC(C)n1c(=O)n(C)c2cnc3cc(F)c(-c4ccc(OCCCN5CCCCC5)nc4)cc3c21` + CN(C)c1ccc(Nc2c3ccc(NC(=O)CCN4CCCC4)cc3nc3cc(NC(=O)CCN4CCCC4)ccc23)cc1: the viability, T/C was 36.3%.

`CC1COCCN1c1cc(-c2ccnn2C)c2ccnc(-c3ccn[nH]3)c2n1` (configuration not stated) + CN(C)c1ccc(Nc2c3ccc(NC(=O)CCN4CCCC4)cc3nc3cc(NC(=O)CCN4CCCC4)ccc23)cc1: the viability, T/C is 22.1%.

As for `CC1COCCN1c1cc(C2(S(C)(=N)=O)CC2)nc(-c2ccnc3[nH]ccc23)n1` (configuration not stated) + CN(C)c1ccc(Nc2c3ccc(NC(=O)CCN4CCCC4)cc3nc3cc(NC(=O)CCN4CCCC4)ccc23)cc1, the viability, T/C was 50.3%.

Take `COc1ccc([C@@H](O)c2cc(-c3ncnc4cc(N5CCOCC5)ccc34)c(F)cc2Cl)nn1` + CN(C)c1ccc(Nc2c3ccc(NC(=O)CCN4CCCC4)cc3nc3cc(NC(=O)CCN4CCCC4)ccc23)cc1: the viability, T/C was 59.8%.

On to `O=C(c1cc(Cc2n[nH]c(=O)c3ccccc23)ccc1F)N1CCN(C(=O)C2CC2)CC1` + CN(C)c1ccc(Nc2c3ccc(NC(=O)CCN4CCCC4)cc3nc3cc(NC(=O)CCN4CCCC4)ccc23)cc1, for which the viability, T/C is 46.2%.

The test is the same for the next values; noted with them: second compound 10 µM; first compound 0.316 µM; active compounds read low.
`CC(C)n1c(=O)n(C)c2cnc3cc(F)c(-c4ccc(OCCCN5CCCCC5)nc4)cc3c21` + CN(C)c1ccc(Nc2c3ccc(NC(=O)CCN4CCCC4)cc3nc3cc(NC(=O)CCN4CCCC4)ccc23)cc1: the viability, T/C is 14.8%.

As to `CC1COCCN1c1cc(-c2ccnn2C)c2ccnc(-c3ccn[nH]3)c2n1` (configuration not stated) + CN(C)c1ccc(Nc2c3ccc(NC(=O)CCN4CCCC4)cc3nc3cc(NC(=O)CCN4CCCC4)ccc23)cc1, the viability, T/C was 21.6%.

Turning to `CC1COCCN1c1cc(C2(S(C)(=N)=O)CC2)nc(-c2ccnc3[nH]ccc23)n1` (configuration not stated) + CN(C)c1ccc(Nc2c3ccc(NC(=O)CCN4CCCC4)cc3nc3cc(NC(=O)CCN4CCCC4)ccc23)cc1, the viability, T/C was 32.9%.

As to `COc1ccc([C@@H](O)c2cc(-c3ncnc4cc(N5CCOCC5)ccc34)c(F)cc2Cl)nn1` + CN(C)c1ccc(Nc2c3ccc(NC(=O)CCN4CCCC4)cc3nc3cc(NC(=O)CCN4CCCC4)ccc23)cc1, the viability, T/C was 26.9%.

On to `O=C(c1cc(Cc2n[nH]c(=O)c3ccccc23)ccc1F)N1CCN(C(=O)C2CC2)CC1` + CN(C)c1ccc(Nc2c3ccc(NC(=O)CCN4CCCC4)cc3nc3cc(NC(=O)CCN4CCCC4)ccc23)cc1, for which the viability, T/C was 31%.

The same test, now with this note: second compound 10 µM; first compound 1 µM; active compounds read low.
On to `CC(C)n1c(=O)n(C)c2cnc3cc(F)c(-c4ccc(OCCCN5CCCCC5)nc4)cc3c21` + CN(C)c1ccc(Nc2c3ccc(NC(=O)CCN4CCCC4)cc3nc3cc(NC(=O)CCN4CCCC4)ccc23)cc1, for which the viability, T/C is 9.87%.

`CC1COCCN1c1cc(-c2ccnn2C)c2ccnc(-c3ccn[nH]3)c2n1` (configuration not stated) + CN(C)c1ccc(Nc2c3ccc(NC(=O)CCN4CCCC4)cc3nc3cc(NC(=O)CCN4CCCC4)ccc23)cc1: the viability, T/C was 14.1%.

`CC1COCCN1c1cc(C2(S(C)(=N)=O)CC2)nc(-c2ccnc3[nH]ccc23)n1` (configuration not stated) + CN(C)c1ccc(Nc2c3ccc(NC(=O)CCN4CCCC4)cc3nc3cc(NC(=O)CCN4CCCC4)ccc23)cc1: the viability, T/C was 23.8%.

`COc1ccc([C@@H](O)c2cc(-c3ncnc4cc(N5CCOCC5)ccc34)c(F)cc2Cl)nn1` + CN(C)c1ccc(Nc2c3ccc(NC(=O)CCN4CCCC4)cc3nc3cc(NC(=O)CCN4CCCC4)ccc23)cc1: the viability, T/C is 14.7%.

Regarding `O=C(c1cc(Cc2n[nH]c(=O)c3ccccc23)ccc1F)N1CCN(C(=O)C2CC2)CC1` + CN(C)c1ccc(Nc2c3ccc(NC(=O)CCN4CCCC4)cc3nc3cc(NC(=O)CCN4CCCC4)ccc23)cc1, the viability, T/C was 49.3%.

Staying with this test, now noted: second compound 10 µM; first compound 3.16 µM; active compounds read low.
In the case of `CC(C)n1c(=O)n(C)c2cnc3cc(F)c(-c4ccc(OCCCN5CCCCC5)nc4)cc3c21` + CN(C)c1ccc(Nc2c3ccc(NC(=O)CCN4CCCC4)cc3nc3cc(NC(=O)CCN4CCCC4)ccc23)cc1, the viability, T/C was 4.77%.

Take `CC1COCCN1c1cc(-c2ccnn2C)c2ccnc(-c3ccn[nH]3)c2n1` (configuration not stated) + CN(C)c1ccc(Nc2c3ccc(NC(=O)CCN4CCCC4)cc3nc3cc(NC(=O)CCN4CCCC4)ccc23)cc1: the viability, T/C was 6.17%.

`CC1COCCN1c1cc(C2(S(C)(=N)=O)CC2)nc(-c2ccnc3[nH]ccc23)n1` (configuration not stated) + CN(C)c1ccc(Nc2c3ccc(NC(=O)CCN4CCCC4)cc3nc3cc(NC(=O)CCN4CCCC4)ccc23)cc1: the viability, T/C was 22.6%.

Turning to `COc1ccc([C@@H](O)c2cc(-c3ncnc4cc(N5CCOCC5)ccc34)c(F)cc2Cl)nn1` + CN(C)c1ccc(Nc2c3ccc(NC(=O)CCN4CCCC4)cc3nc3cc(NC(=O)CCN4CCCC4)ccc23)cc1, the viability, T/C was 8.59%.

Take `O=C(c1cc(Cc2n[nH]c(=O)c3ccccc23)ccc1F)N1CCN(C(=O)C2CC2)CC1` + CN(C)c1ccc(Nc2c3ccc(NC(=O)CCN4CCCC4)cc3nc3cc(NC(=O)CCN4CCCC4)ccc23)cc1: the viability, T/C is 36.4%.

Still in this test, the particulars now being: second compound 10 µM; first compound 10 µM; active compounds read low.
In the case of `CC(C)n1c(=O)n(C)c2cnc3cc(F)c(-c4ccc(OCCCN5CCCCC5)nc4)cc3c21` + CN(C)c1ccc(Nc2c3ccc(NC(=O)CCN4CCCC4)cc3nc3cc(NC(=O)CCN4CCCC4)ccc23)cc1, the viability, T/C was 1.9%.

In the case of `CC1COCCN1c1cc(-c2ccnn2C)c2ccnc(-c3ccn[nH]3)c2n1` (configuration not stated) + CN(C)c1ccc(Nc2c3ccc(NC(=O)CCN4CCCC4)cc3nc3cc(NC(=O)CCN4CCCC4)ccc23)cc1, the viability, T/C is 1.51%.

For the molecule `CC1COCCN1c1cc(C2(S(C)(=N)=O)CC2)nc(-c2ccnc3[nH]ccc23)n1` (configuration not stated) + CN(C)c1ccc(Nc2c3ccc(NC(=O)CCN4CCCC4)cc3nc3cc(NC(=O)CCN4CCCC4)ccc23)cc1, the viability, T/C was 17%.

Consider `COc1ccc([C@@H](O)c2cc(-c3ncnc4cc(N5CCOCC5)ccc34)c(F)cc2Cl)nn1` + CN(C)c1ccc(Nc2c3ccc(NC(=O)CCN4CCCC4)cc3nc3cc(NC(=O)CCN4CCCC4)ccc23)cc1, for which the viability, T/C is 5.21%.

For the molecule `O=C(c1cc(Cc2n[nH]c(=O)c3ccccc23)ccc1F)N1CCN(C(=O)C2CC2)CC1` + CN(C)c1ccc(Nc2c3ccc(NC(=O)CCN4CCCC4)cc3nc3cc(NC(=O)CCN4CCCC4)ccc23)cc1, the viability, T/C is 32.9%.
